US7713994B2 (Wyeth LLC, priority 2005, dated 2010)
Read-outs that look alike come from different tables or passages of the source.

Assays:
HCT-116 = test: Cytotoxicity assay (SRB), HCT-116; assay type: cell-based; conditions: HCT116 cells, 3 days, SRB, read-out: In Vitro Cellular Activity IC50 HCT116
Outline: (§1)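 Protein staining with sulforhodamine B after cold TCA fixation served as the survival endpoint (A540, relative to untreated cells). Before staining, cells were incubated with compound at 37 °C, 7% CO2 for 3 days, or 6 days for BT474.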

LoVo = test: Cytotoxicity assay (SRB), LoVo; assay type: cell-based; conditions: LoVo cells, 3 days, SRB, read-out: In Vitro Cellular Activity IC50 LOVO
Outline: as §1

MCF-7 = test: Cytotoxicity assay (SRB), MCF-7; assay type: cell-based; conditions: MCF-7 cells, 3 days, SRB, read-out: In Vitro Cellular Activity IC50 MCF-7
Outline: as §1

BT474 = test: Cytotoxicity assay (SRB), BT474; assay type: cell-based; conditions: BT474 cells, 6 days, SRB, read-out: In Vitro Cellular Activity IC50 BT474
Outline: as §1

cyclin D1/cdk 4 enzyme = target: T1, cyclin D1/cdk 4 enzyme (Homo sapiens, UniProt P11802); test: CDK4 ELISA kinase assay (phospho-Rb ser 795 detection); assay type: biochemical
T1 construct: made in house; host or cells: Sf9 insect cells, recombinant baculovirus
T1 sequence (P11802 whole entry, species assumed): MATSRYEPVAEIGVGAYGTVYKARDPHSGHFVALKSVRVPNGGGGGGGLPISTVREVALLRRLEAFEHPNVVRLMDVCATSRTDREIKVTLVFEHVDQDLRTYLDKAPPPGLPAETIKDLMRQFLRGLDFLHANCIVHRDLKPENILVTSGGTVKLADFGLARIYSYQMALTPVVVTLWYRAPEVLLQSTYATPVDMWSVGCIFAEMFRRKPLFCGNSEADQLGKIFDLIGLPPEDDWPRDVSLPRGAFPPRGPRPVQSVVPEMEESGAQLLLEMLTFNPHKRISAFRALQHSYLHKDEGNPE
T1 sequence (P24385 whole entry partner, species assumed): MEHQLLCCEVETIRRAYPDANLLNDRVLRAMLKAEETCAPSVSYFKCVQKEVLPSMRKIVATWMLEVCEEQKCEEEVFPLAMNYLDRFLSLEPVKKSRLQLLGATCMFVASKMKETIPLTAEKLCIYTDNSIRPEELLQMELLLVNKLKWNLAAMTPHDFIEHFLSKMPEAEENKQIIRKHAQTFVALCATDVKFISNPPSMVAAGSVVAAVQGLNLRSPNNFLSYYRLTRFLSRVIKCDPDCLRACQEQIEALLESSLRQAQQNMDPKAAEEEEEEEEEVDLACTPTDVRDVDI
Outline: (§2)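 GST-Rb C-terminal fragment coated on plates; partially purified Sf9-expressed cyclin D1/CDK4, cyclin E/CDK2 or cyclin B/CDK1 with 200 μM ATP, pH 7.5 HEPES/MgCl2 buffer, 1 h at 30 °C; screen compound final 10 μg/ml. Phospho-Rb Ser795 detected by antibody ELISA (TMB, A450); % of control, IC50 from background-subtracted inhibition curves.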

cyclin E/CDK2 enzyme = target: T2, cyclin E/CDK2 enzyme (Homo sapiens, UniProt P24941); test: CDK2 ELISA kinase assay (phospho-Rb ser 795 detection); assay type: biochemical
T2 construct: made in house; host or cells: Sf9 insect cells, recombinant baculovirus
Outline: as §2

cyclin B/CDK1 enzyme = target: T3, cyclin B/CDK1 enzyme (Homo sapiens, UniProt P06493); test: CDK1 ELISA kinase assay (phospho-Rb ser 795 detection); assay type: biochemical
T3 construct: purchased New England BioLabs; host or cells: Sf9 insect cells, recombinant baculovirus
T3 sequence (P06493 whole entry): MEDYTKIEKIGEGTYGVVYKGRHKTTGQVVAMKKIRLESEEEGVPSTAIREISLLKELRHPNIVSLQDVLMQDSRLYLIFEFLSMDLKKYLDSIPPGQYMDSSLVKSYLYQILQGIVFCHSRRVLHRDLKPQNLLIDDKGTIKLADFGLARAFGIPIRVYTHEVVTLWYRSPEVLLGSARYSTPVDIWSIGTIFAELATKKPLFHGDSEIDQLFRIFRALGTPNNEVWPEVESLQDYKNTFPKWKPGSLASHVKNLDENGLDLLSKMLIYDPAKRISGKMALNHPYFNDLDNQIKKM
T3 sequence (P14635 whole entry partner): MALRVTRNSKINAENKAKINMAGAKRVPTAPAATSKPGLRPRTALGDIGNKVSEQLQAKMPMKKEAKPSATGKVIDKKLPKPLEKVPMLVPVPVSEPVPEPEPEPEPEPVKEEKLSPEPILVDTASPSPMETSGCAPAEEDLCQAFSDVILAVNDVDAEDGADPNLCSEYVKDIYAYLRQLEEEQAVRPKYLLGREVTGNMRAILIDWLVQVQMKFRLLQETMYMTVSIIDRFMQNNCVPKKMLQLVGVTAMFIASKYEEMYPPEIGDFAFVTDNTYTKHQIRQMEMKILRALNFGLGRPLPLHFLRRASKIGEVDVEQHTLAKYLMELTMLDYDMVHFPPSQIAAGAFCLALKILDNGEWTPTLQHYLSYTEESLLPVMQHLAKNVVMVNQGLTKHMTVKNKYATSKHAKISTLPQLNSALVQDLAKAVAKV
Outline: as §2

[1] = In Vitro Enzyme Assay, cyclin D1/cdk 4, read-out: CDK4 IC50
[2] = In Vitro Enzyme Assay, cyclin E/CDK2, read-out: CDK2 IC50
[3] = In Vitro Enzyme Assay, cyclin B/CDK1, read-out: CDK1 IC50
[4] = In Vitro Enzyme Assays, 200 μM ATP, read-out: CDK4 IC50
[5] = In Vitro Enzyme Assays, read-out: CDK2 IC50
[6] = In Vitro Enzyme Assays, read-out: CDK1 IC50

| Compound | IC50 (HCT-116; Homo sapiens, HCT-116, 72 h) | IC50 (LoVo; Homo sapiens, LoVo, 72 h) | IC50 (MCF-7; Homo sapiens, MCF7, 72 h) | IC50 (BT474; Homo sapiens, BT-474, 144 h) | IC50 (cyclin D1/cdk 4 enzyme; [1]) | IC50 (cyclin E/CDK2 enzyme; [2]) | IC50 (cyclin B/CDK1 enzyme; [3]) | IC50 (cyclin D1/cdk 4 enzyme; [4]) | IC50 (cyclin E/CDK2 enzyme; [5]) | IC50 (cyclin B/CDK1 enzyme; [6]) | IC50 (HCT-116) | IC50 (LoVo) | IC50 (MCF-7) | IC50 (BT474) |
| --- | --- | --- | --- | --- | --- | --- | --- | --- | --- | --- | --- | --- | --- | --- |
| CCN1CCCC1c1ccc(N/C=C2\C(=O)NC(=O)c3ccc(I)cc32)cc1 (stereo not drawn) [Example 465, 4-{[4-(1-Ethyl-pyrrolidin-2-yl)-phenylamino]-methylene}-6-iodo-4H-isoquinoline-1,3-dione] | 2.9 µM | 5 µM | 1.3 µM | 3.8 µM | 0.18 µM | 22 µM | > 50 µM |  |  |  |  |  |  |  |
| O=C1NCc2cc(Br)ccc2C1=CNc1ccc(CCO)cc1 [Example 863, 7-Bromo-4-{[4-(2-hydroxy-ethyl)-phenylamino]-methylene}-1,4-dihydro-2H-isoquinolin-3-one] | 11.2 µM | 10.2 µM | 16.3 µM | 31.1 µM | 20.1 µM | 18 µM | 37.1 µM |  |  |  |  |  |  |  |
| CN(C)CCNCC1CCN(c2ccc(N/C=C3\C(=O)NC(=O)c4ccc(I)cc43)cc2)CC1 [Example 446, (4Z)-4-[({4-[4-({[2-(Dimethylamino)ethyl]amino}methyl)piperidin-1-yl]phenyl}amino)methylene]-6-iodoisoquinoline-1,3(2H,4H)-dione] | 1.7 µM | 2.9 µM | 3 µM | 3.4 µM |  |  |  | 0.28 µM | > 50 µM | > 50 µM |  |  |  |  |
| N#Cc1ccc(-c2ccc3c(c2)C(=CNCc2ccc(O)c(O)c2)C(=O)NC3=O)cc1 [Example 784, 4-{4-[(3,4-Dihydroxy-benzylamino)-methylene]-1,3-dioxo-1,2,3,4-tetrahydro-isoquinolin-6-yl}-benzonitrile] | 8.7 µM | 35.1 µM | 13.8 µM | > 50 µM | 0.06 µM | 7.3 µM | 27.7 µM |  |  |  |  |  |  |  |
| CN1CCCC1c1ccc(N/C=C2\C(=O)NC(=O)c3ccc(-c4ccoc4)cc32)cc1 (stereo not drawn) [Example 451, 6-Furan-3-yl-4-{[4-(1-methyl-pyrrolidin-2-yl)-phenylamino]-methylene}-4H-isoquinoline-1,3-dione] | 2.8 µM | 2.5 µM | 1 µM | 1 µM |  |  |  | 0.06 µM | > 50 µM | > 50 µM |  |  |  |  |
| CN1CCN(c2ccc(N/C=C3\C(=O)NC(=O)c4ccc(-c5ccoc5)cc43)c(F)n2)CC1 [Example 498, (4Z)-4-({[2-Fluoro-6-(4-methylpiperazin-1-yl)pyridin-3-yl]amino}methylene)-6-(3-furyl)isoquinoline-1,3(2H,4H)-dione] |  |  |  |  | 0.21 µM | 32.4 µM | 19.3 µM |  |  |  | 1.1 µM | 1.6 µM | 3.5 µM | 1 µM |
| N#CCc1ccc(NC=C2C(=O)NC(=O)c3ccc(-c4ccc[nH]4)cc32)cc1 [Example 630, (4-{[1,3-Dioxo-6-(1H-pyrrol-2-yl)-2,3-dihydro-1H-isoquinolin-4-ylidenemethyl]-amino}-phenyl)-acetonitrile] | 26 µM | 45.8 µM | 20 µM | 45.3 µM | 0.2 µM | 17.3 µM | 31 µM |  |  |  |  |  |  |  |
| O=C1NC(=O)c2ccc(-c3ccccc3)cc2C1=CNCc1ccc(O)c(O)c1 [Example 620, 4-[(3,4-Dihydroxy-benzylamino)-methylene]-6-phenyl-4H-isoquinoline-1,3-dione] | 11.7 µM | 11.5 µM | 11 µM | 15.5 µM | 0.05 µM | 5.8 µM | 32.5 µM |  |  |  |  |  |  |  |
| O=C1NC(=O)c2ccc(-c3ccsc3)cc2/C1=C/Nc1ccc(N2CCN(CC3CC3)CC2)nc1 [Example 418, (4Z)-4-[({6-[4-(Cyclopropylmethyl)piperazin-1-yl]pyridin-3-yl}amino)methylene]-6-(3-thienyl)isoquinoline-1,3(2H,4H)-dione] | 1.4 µM | 2.4 µM | 3.2 µM | 2.7 µM |  |  |  | 0.02 µM | > 50 µM | > 50 µM |  |  |  |  |
